From the supplement of paper PMC10307832

Legend:
Assay in all cases: relative viability (nuclei count vs DMSO), 5 days (fraction); higher = more cells survive
COR-L 105 = test system: COR-L 105
Method in brief: (§1)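 Lung cancer cell lines, seeded in 1536-well plates, were treated the following day by pin tool with a single drug or with five library-drug doses (not always all listed) in √10 steps on top of a fixed anchor-drug dose. Cells were fixed and nuclei stained in one step after 5 days, and nuclei were counted. Relative viability is the nuclei count for treated wells divided by that for vehicle wells, reported as medians of duplicate plates.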

COR-L23 = test system: COR-L23
Method in brief: as §1

EPLC-272H = test system: EPLC-272H
Method in brief: as §1

HARA = test system: HARA
Method in brief: as §1

HCC-15 = test system: HCC-15
Method in brief: as §1

HCC-366 = test system: HCC-366
Method in brief: as §1

HCC-44 = test system: HCC-44
Method in brief: as §1

HCC-78 = test system: HCC-78
Method in brief: as §1

HCC-827 = test system: HCC-827
Method in brief: as §1

LCLC-103H = test system: LCLC-103H
Method in brief: as §1

NCI-H1395 = test system: NCI-H1395
Method in brief: as §1

NCI-H1437 = test system: NCI-H1437
Method in brief: as §1

NCI-H1792 = test system: NCI-H1792
Method in brief: as §1

NCI-H1944 = test system: NCI-H1944
Method in brief: as §1

NCI-H1975 = test system: NCI-H1975
Method in brief: as §1

NCI-H2023 = test system: NCI-H2023
Method in brief: as §1

NCI-H2085 = test system: NCI-H2085
Method in brief: as §1

NCI-H2405 = test system: NCI-H2405
Method in brief: as §1

NCI-H358 = test system: NCI-H358
Method in brief: as §1

NCI-H661 = test system: NCI-H661
Method in brief: as §1

NCI-H727 = test system: NCI-H727
Method in brief: as §1

SK-LU-1 = test system: SK-LU-1
Method in brief: as §1

UMC-11 = test system: UMC-11
Method in brief: as §1

Molecule `Cc1cnc(-c2cnc(NCCNc3ccc(C#N)cn3)nc2-c2ccc(Cl)cc2Cl)[nH]1` + O=C(c1cc(Cc2n[nH]c(=O)c3ccccc23)ccc1F)N1CCN(C(=O)C2CC2)CC1 [Olaparib] (partner 8 µM) has a relative viability (COR-L 105; first compound 0.08 µM) of 0.734, a relative viability (COR-L 105; first compound 0.253 µM) of 0.711 and a relative viability (COR-L 105; first compound 0.8 µM) of 0.642. It also gave a relative viability (COR-L 105; first compound 2.53 µM) of 0.691, a relative viability (COR-L23; first compound 0.08 µM) of 0.379 and a relative viability (COR-L23; first compound 0.253 µM) of 0.314. For the same molecule, the relative viability (COR-L23; first compound 0.8 µM) was 0.343, the relative viability (COR-L23; first compound 2.53 µM) was 0.261 and the relative viability (EPLC-272H; first compound 0.08 µM) was 0.731. It also gave a relative viability (EPLC-272H; first compound 0.253 µM) of 0.779, a relative viability (EPLC-272H; first compound 0.8 µM) of 0.739 and a relative viability (EPLC-272H; first compound 2.53 µM) of 0.666. For the same molecule, the relative viability (HARA; first compound 0.08 µM) was 0.509, the relative viability (HARA; first compound 0.253 µM) was 0.72 and the relative viability (HARA; first compound 0.8 µM) was 0.764. For the same molecule, the relative viability (HARA; first compound 2.53 µM) was 0.894, the relative viability (HCC-15; first compound 0.08 µM) was 0.77 and the relative viability (HCC-15; first compound 0.253 µM) was 0.653. For the same molecule, the relative viability (HCC-15; first compound 0.8 µM) was 0.721, the relative viability (HCC-15; first compound 2.53 µM) was 0.737 and the relative viability (HCC-366; first compound 0.08 µM) was 0.375. For the same molecule, the relative viability (HCC-366; first compound 0.253 µM) was 0.297, the relative viability (HCC-366; first compound 0.8 µM) was 0.338 and the relative viability (HCC-44; first compound 0.08 µM) was 0.934. The relative viability (HCC-44; first compound 0.253 µM) was 0.946, the relative viability (HCC-44; first compound 0.8 µM) was 1.04 and the relative viability (HCC-44; first compound 2.53 µM) was 0.989. The relative viability (HCC-78; first compound 0.08 µM) was 0.865, the relative viability (HCC-78; first compound 0.253 µM) was 0.588 and the relative viability (HCC-78; first compound 0.8 µM) was 0.737. For the same molecule, the relative viability (HCC-78; first compound 2.53 µM) was 0.834, the relative viability (HCC-827; first compound 0.08 µM) was 0.582 and the relative viability (HCC-827; first compound 0.253 µM) was 0.514. The relative viability (HCC-827; first compound 0.8 µM) was 0.572, the relative viability (HCC-827; first compound 2.53 µM) was 0.561 and the relative viability (LCLC-103H; first compound 0.08 µM) was 0.837. The relative viability (LCLC-103H; first compound 0.253 µM) was 0.673, the relative viability (LCLC-103H; first compound 0.8 µM) was 0.731 and the relative viability (LCLC-103H; first compound 2.53 µM) was 0.818. For the same molecule, the relative viability (NCI-H1395; first compound 0.08 µM) was 0.496, the relative viability (NCI-H1395; first compound 0.253 µM) was 0.435 and the relative viability (NCI-H1395; first compound 0.8 µM) was 0.504. For the same molecule, the relative viability (NCI-H1395; first compound 2.53 µM) was 0.47, the relative viability (NCI-H1437; first compound 0.08 µM) was 0.605 and the relative viability (NCI-H1437; first compound 0.253 µM) was 0.606. The relative viability (NCI-H1437; first compound 0.8 µM) was 0.596, the relative viability (NCI-H1437; first compound 2.53 µM) was 0.598 and the relative viability (NCI-H1792; first compound 0.08 µM) was 0.377. For the same molecule, the relative viability (NCI-H1792; first compound 0.253 µM) was 0.357, the relative viability (NCI-H1792; first compound 0.8 µM) was 0.345 and the relative viability (NCI-H1792; first compound 2.53 µM) was 0.397. The relative viability (NCI-H1944; first compound 0.08 µM) was 0.446, the relative viability (NCI-H1944; first compound 0.8 µM) was 0.42 and the relative viability (NCI-H1944; first compound 2.53 µM) was 0.413. The relative viability (NCI-H1975; first compound 0.08 µM) was 0.759, the relative viability (NCI-H1975; first compound 0.253 µM) was 0.715 and the relative viability (NCI-H1975; first compound 0.8 µM) was 0.672. For the same molecule, the relative viability (NCI-H1975; first compound 2.53 µM) was 0.502, the relative viability (NCI-H2023; first compound 0.08 µM) was 0.502 and the relative viability (NCI-H2023; first compound 0.253 µM) was 0.51. For the same molecule, the relative viability (NCI-H2023; first compound 0.8 µM) was 0.439, the relative viability (NCI-H2023; first compound 2.53 µM) was 0.36 and the relative viability (NCI-H2085; first compound 0.08 µM) was 0.804. It also gave a relative viability (NCI-H2085; first compound 0.253 µM) of 0.792, a relative viability (NCI-H2085; first compound 0.8 µM) of 0.711 and a relative viability (NCI-H2085; first compound 2.53 µM) of 0.79. It also gave a relative viability (NCI-H2405; first compound 0.08 µM) of 0.882, a relative viability (NCI-H2405; first compound 0.253 µM) of 0.771 and a relative viability (NCI-H2405; first compound 0.8 µM) of 0.88. The relative viability (NCI-H2405; first compound 2.53 µM) was 0.661, the relative viability (NCI-H358; first compound 0.08 µM) was 0.578 and the relative viability (NCI-H358; first compound 0.253 µM) was 0.522. The relative viability (NCI-H358; first compound 0.8 µM) was 0.555, the relative viability (NCI-H358; first compound 2.53 µM) was 0.517 and the relative viability (NCI-H661; first compound 0.08 µM) was 0.736. For the same molecule, the relative viability (NCI-H661; first compound 0.253 µM) was 0.759, the relative viability (NCI-H661; first compound 0.8 µM) was 0.7 and the relative viability (NCI-H661; first compound 2.53 µM) was 0.654. For the same molecule, the relative viability (NCI-H727; first compound 0.08 µM) was 0.69, the relative viability (NCI-H727; first compound 0.253 µM) was 0.768 and the relative viability (NCI-H727; first compound 0.8 µM) was 0.711. For the same molecule, the relative viability (NCI-H727; first compound 2.53 µM) was 0.735, the relative viability (SK-LU-1; first compound 0.08 µM) was 0.455 and the relative viability (SK-LU-1; first compound 0.253 µM) was 0.479. It also gave a relative viability (SK-LU-1; first compound 0.8 µM) of 0.463, a relative viability (SK-LU-1; first compound 2.53 µM) of 0.472 and a relative viability (UMC-11; first compound 0.08 µM) of 0.413. It also gave a relative viability (UMC-11; first compound 0.253 µM) of 0.997, a relative viability (UMC-11; first compound 0.8 µM) of 0.343 and a relative viability (UMC-11; first compound 2.53 µM) of 0.352.
